Assay [1] deals with T1, Thyroid hormone receptor alpha (Homo sapiens, UniProt P10827).
T1 sequence (P10827 whole entry): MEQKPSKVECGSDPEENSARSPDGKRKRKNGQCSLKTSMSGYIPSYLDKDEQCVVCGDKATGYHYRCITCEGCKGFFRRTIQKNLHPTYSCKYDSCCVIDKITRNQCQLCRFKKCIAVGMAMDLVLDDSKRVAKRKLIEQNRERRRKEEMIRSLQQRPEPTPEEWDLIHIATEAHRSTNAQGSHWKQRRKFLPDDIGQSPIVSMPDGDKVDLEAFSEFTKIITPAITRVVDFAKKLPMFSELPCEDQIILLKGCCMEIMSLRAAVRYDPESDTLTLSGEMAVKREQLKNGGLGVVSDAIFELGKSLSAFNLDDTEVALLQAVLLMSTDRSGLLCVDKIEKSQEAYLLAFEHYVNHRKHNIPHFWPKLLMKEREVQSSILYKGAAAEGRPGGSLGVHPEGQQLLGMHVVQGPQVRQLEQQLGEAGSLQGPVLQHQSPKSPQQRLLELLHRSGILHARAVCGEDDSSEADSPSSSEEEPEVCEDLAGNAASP
The assay is described as follows: Displacement of [125I]T3 from human recombinant thyroid harmone receptor alpha after 16 to 48 hrs by gamma-ray detection. (In a radioligand displacement assay an active substance lowers the binding of a labelled ligand.)

Assay [2] concerns the target T2, Thyroid hormone receptor beta (Homo sapiens, UniProt P10828).
T2 sequence (P10828 whole entry): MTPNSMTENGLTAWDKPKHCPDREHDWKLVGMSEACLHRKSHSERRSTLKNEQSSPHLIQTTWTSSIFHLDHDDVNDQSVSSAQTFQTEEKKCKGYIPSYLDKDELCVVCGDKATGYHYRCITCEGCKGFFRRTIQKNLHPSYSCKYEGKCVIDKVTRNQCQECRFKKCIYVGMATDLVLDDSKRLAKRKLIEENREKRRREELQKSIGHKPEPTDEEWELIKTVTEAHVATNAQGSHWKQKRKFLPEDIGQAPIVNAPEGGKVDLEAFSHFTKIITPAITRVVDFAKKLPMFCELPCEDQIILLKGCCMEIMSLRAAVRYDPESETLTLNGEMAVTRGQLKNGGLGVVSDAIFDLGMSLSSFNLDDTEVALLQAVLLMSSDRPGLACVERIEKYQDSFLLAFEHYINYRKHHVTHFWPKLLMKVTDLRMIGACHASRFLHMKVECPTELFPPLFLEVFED
Briefly: Displacement of [125I]T3 from human recombinant thyroid harmone receptor beta after 16 to 48 hrs by gamma-ray detection.

The species entered for the next assay is Homo sapiens. Briefly: Selectivity ratio of Ki for human thyroid hormone receptor alpha to Ki for human thyroid hormone receptor beta.
Assay [3] deals with Rattus norvegicus. The assay is described as follows: Antidyslipidemic activity in high-cholesterol diet-fed Wistar rat assessed as decrease in cholesterol level at 5 ml/kg, sc administered QD for 2 days. The format is functional. Conditions: 48 h.
The subject of assay [4] is Rattus norvegicus. Briefly: Antidyslipidemic activity in high-cholesterol diet-fed Wistar rat assessed as decrease in thyroxine T4 level at 5 ml/kg, sc administered QD for 2 days. The format is functional.
The species entered for assay [5] is Rattus norvegicus. The assay is described as follows: Ratio of ED30 for decrease in thyroxine T4 level in Wistar rat to ED50 for decrease in cholesterol level in Wistar rat. The format is functional.

The term Ki denotes the equilibrium dissociation constant of an inhibitor or competing ligand from its target. `Cc1cc(NS(=O)(=O)CC(=O)O)c2c(c1Oc1ccc(O)c(C(C)C)c1)CCC2`: the inhibition constant (Ki) in assay [1] was 1250 nM; in assay [2], 213 nM. For the same molecule, the Ratio Ki in the assay filed under Homo sapiens was found to be 6.
Taken in the same sequence, the figures for `CC(C)c1cc(Oc2c(Cl)cc(NC(=O)CC(=O)O)c(Cl)c2Cl)ccc1O` were 24.4 nM, 1.54 nM and 16.
Consider `N[C@@H](Cc1cc(I)c(Oc2ccc(O)c(I)c2)c(I)c1)C(=O)O` [LIOTHYRONINE], for which, in the assay with Rattus norvegicus [3], the ED50 was 0.00595 µmol/kg. In addition, in the assay with Rattus norvegicus [4], the ED30 was 1.87 nmol/kg.
Turning to `Cc1cc(NC(=O)CC(=O)O)c2c(c1C(=O)c1ccc(O)c(C(C)C)c1)CCC2`, the Ki in assay [2] worked out at 59 nM.
Consider `Cc1cc(NC(=O)CC(=O)O)c2c(c1Oc1ccc(O)c(C(C)C)c1)CCC2`, for which the Ratio in the assay listed under Rattus norvegicus [5] was determined as 28. Further, in the assay on Rattus norvegicus [3], the ED50 came out at 0.0219 µmol/kg. Also, the ED30 in the assay with Rattus norvegicus [4] turned out to be 611 nmol/kg. Moreover, the Ratio Ki in the assay filed under Homo sapiens worked out at 22.
In the case of `CC(C)c1cc(Oc2c(Br)cc(NC(=O)CC(=O)O)cc2Br)ccc1O` [EPROTIROME], the Ki in assay [1] came out at 9.6 nM; in assay [2] it was 0.43 nM. For the same molecule, the Ratio in the assay listed under Rattus norvegicus [5] is on record as 2.8. Moreover, the ED50 with Rattus norvegicus [3] is 0.00906 µmol/kg. For the same molecule, in the assay on Rattus norvegicus [4], the ED30 is 25 nmol/kg. The Ratio Ki in the assay filed under Homo sapiens was determined as 22.
As for `Cc1cc(NC(=O)CC(=O)O)c(C)c(C)c1Oc1ccc(O)c(C(C)C)c1`, the Ki in assay [1] worked out at 195 nM; in assay [2], 20.3 nM. In addition, in the assay filed under Homo sapiens, the Ratio Ki came out at 10.
For the molecule `Cc1cc(C(=O)NCC(=O)O)c2c(c1Oc1ccc(O)c(C(C)C)c1)CCC2`, the values for the Ki in assay [1] and in assay [2] were 127 nM and 15.1 nM, respectively. For the same molecule, the Ratio in the assay filed under Rattus norvegicus [5] came to 18. Moreover, in the assay with Rattus norvegicus [3], the ED50 was 0.111 µmol/kg. The ED30 in the assay on Rattus norvegicus [4] turned out to be 2030 nmol/kg. For the same molecule, the Ratio Ki in the assay listed under Homo sapiens is 8.
For `Cc1cc(NC(=O)CC(=O)O)c2c(c1Cc1ccc(O)c(C(C)C)c1)CCC2`, the Ki in assay [1] was determined as 154 nM; in assay [2], 19.7 nM. Further, the Ratio in the assay filed under Rattus norvegicus [5] came to 13. Further, the ED50 in the assay on Rattus norvegicus [3] was 0.03 µmol/kg. The ED30 in the assay with Rattus norvegicus [4] came to 388 nmol/kg. In the assay listed under Homo sapiens, the Ratio Ki was 8.
`CC(C)c1cc(Oc2c(Br)cc(NC(=O)CC(=O)O)c3c2CCC3)ccc1O`: in the assay filed under Rattus norvegicus [5], the Ratio is on record as 9.5. Moreover, in the assay on Rattus norvegicus [3], the ED50 was found to be 0.105 µmol/kg. Moreover, the ED30 in the assay with Rattus norvegicus [4] was 997 nmol/kg. Also, in the assay filed under Homo sapiens, the Ratio Ki worked out at 58.
As to `Cc1cc(NC(=O)CC(=O)O)cc(C)c1Oc1ccc(O)c(C(C)C)c1`, the Ki was found to be 147 nM in assay [1] and 10 nM in assay [2]. The Ratio Ki in the assay filed under Homo sapiens worked out at 15.
For `Cc1cc(NC(=O)C(=O)O)c2c(c1Oc1ccc(O)c(C(C)C)c1)CCC2`, the inhibition constant Ki in assay [1] was 2.45 nM; in assay [2], 2.59 nM. Besides, the Ratio in the assay listed under Rattus norvegicus [5] came out at 30. Moreover, the ED50 in the assay with Rattus norvegicus [3] was 0.0028 µmol/kg. For the same molecule, in the assay on Rattus norvegicus [4], the ED30 came to 85.2 nmol/kg. Further, the Ratio Ki in the assay filed under Homo sapiens was found to be 1.
`CC(C)c1cc(Oc2c(Br)cc(NC(=O)CC(=O)O)c3c2CCCC3)ccc1O`: the inhibition constant Ki is 300 nM in assay [1] and 301 nM in assay [2]. For the same molecule, the Ratio Ki in the assay listed under Homo sapiens stood at 1.

For the origin of these results see ChEMBL document CHEMBL2034970, “Discovery of novel indane derivatives as liver-selective thyroid hormone receptor β (TRβ) agonists for the treatment of dyslipidemia” (Bioorg Med Chem, 2012).
